In patent US9622482B2, “Methods for increasing oil palm yield” (Valent BioSciences Corporation, priority 2014, dated 2017):

How the values were obtained:
[1] = system: oil palm fruit; conditions: postharvest application, detached bunches; cited from earlier work
[2] = system: oil palm; experiment: Pre-harvest bunch-directed spray on oil palm, fruit abscission (cumulative loose fruit and loose mass); assay type: in vivo, oil palm (cross between Compact and Ghana); conditions: for % Difference with UTC (Cumulative Loose Fruit) / % Difference with UTC (Cumulative Loose Mass) / Cumulative Loose Mass / Cumulative Loose Fruit: single spray 100 mL/bunch; for % Difference with UTC (Cumulative Loose Fruit) / % Difference with UTC (Cumulative Loose Mass) / Cumulative Loose Mass: 14 days; for Cumulative Loose Fruit: counted for 14 days
Protocol: A study was conducted in a plantation in Costa Rica to compare the effects of single bunch-directed applications of: (1) untreated control (water sprayed); (2) AVG at 500 ppm active ingredient (a.i.); (3) 240 ppm a.i. of STS; (4) 720 ppm a.i. of STS; (5) 2,200 ppm a.i. of STS; and (6) 6,600 ppm a.i. of STS. In this study, AVG was provided in a formulation as AVG-HCl at a concentration of 20%. STS was prepared using a 100 mM sodium thiosulfate treatment. For each treatment, 23 palms were randomly selected covering about 15 hectares. The variety of plants used was a cross between Compact and Ghana. The plants were three years old at the time of treatment. A CO2 sprayer was used to spray all treatments (100 mL/bunch) to bunches with 1 to 4 loose fruits. The time required to spray each bunch was about 8 seconds at 20 psi using a 2.0 full cone nozzle. The treatments were applied once per bunch. Ten and thirteen bunches per treatment were sprayed on Apr. 15 and 22, 2015, respectively. Cumulative loose fruit (CLF) and cumulative loose mass (CLM) counts were determined on a daily basis for 14 days with the exception of day 4 and day 9 (for second spray only) and day 11 (after initial spray only) as measure to objectively quantify fruit abscission. An electronic balance was used to weigh all fruit. All loose fruit on the bunch, branches and on the ground was counted and weighed.

[3] = system: oil palm fruit; conditions: preharvest application to attached bunches; cited from earlier work
[4] = 240 to 6,600 ppm a.i., overall statement

## NOCC(=O)O [AOA, aminooxyacetic acid]
[1]
  abscission of oil palm fruit: delayed or suppressed abscission

## NCCO/C=C/[C@H](N)C(=O)O [AVG, aminoethyoxyvinylglycine, reference compound]
[2]; 500 ppm a.i.
  % Difference with UTC (Cumulative Loose Fruit): 71.4%
  % Difference with UTC (Cumulative Loose Mass): 70.8%
  Cumulative Loose Mass: 321 g
  Cumulative Loose Fruit: 72.0

## O=P(O)(O)CCCl [ethephon, 2-chloroethyl phosphonic acid]
[3]
  increase of oil content: 7%

## silverthiosulfate [STS]
[2]; 240 ppm a.i.
  % Difference with UTC (Cumulative Loose Fruit): 14.4%
  % Difference with UTC (Cumulative Loose Mass): −0.4%
  Cumulative Loose Mass: 1106 g
  Cumulative Loose Fruit: 129.0
[2]; [4]
  effect on cumulative loose fruit: did not consistently decrease
  effect on cumulative loose mass: did not consistently decrease
[2]; 720 ppm a.i.
  % Difference with UTC (Cumulative Loose Fruit): 18.7%
  % Difference with UTC (Cumulative Loose Mass): 11.3%
  Cumulative Loose Mass: 977 g
  Cumulative Loose Fruit: 124.7
[2]; 2,200 ppm a.i.
  % Difference with UTC (Cumulative Loose Fruit): −15.7%
  % Difference with UTC (Cumulative Loose Mass): −26.4%
  Cumulative Loose Mass: 1392 g
  Cumulative Loose Fruit: 159.1
[2]; 6,600 ppm a.i.
  % Difference with UTC (Cumulative Loose Fruit): 25.9%
  % Difference with UTC (Cumulative Loose Mass): 7.3%
  Cumulative Loose Mass: 1020 g
  Cumulative Loose Fruit: 117.5
